These results are taken from PubChem BioAssay AID652057 (Broad Institute, 2013).

Several values for one entry are separate records, joined by “and”; a condition that tells them apart may be missing. Equal values may be shown once.

This assay has as its system HeLa-JRFL Env/CEM21 cell fusion, luciferase. The assay can be described thus: blockers of HIV-1 envelope-mediated cell-cell fusion – cherry-pick, dose response (AID 652057).

Turning to `C[C@H](CO)N1C[C@H](C)[C@H](CN(C)S(=O)(=O)c2ccccc2)Oc2ncc(/C=C/c3ccccc3)cc2C1=O`, the AC50 – broadly, the midpoint of the concentration-response curve, whichever way the signal moves – was 9.21 µM and 1.6 µM.
In the case of `O=C(C[C@H]1C[C@H]2c3cc(NC(=O)c4ccc5c(c4)OCO5)ccc3O[C@H]2[C@H](CO)O1)NCc1ccc(Oc2ccccc2)cc1`, the AC50 is 35.1 µM.
